In US20120329761A1, “USE OF TIGECYCLINE FOR TREATMENT OF CANCER” (UNIVERSITY HEALTH NETWORK, priority 2010, published 2012):

How the values were obtained:
myeloma cell lines = assay: Cell growth and viability, MTS assay, 72 hours; format: cell-based
Experimental: (§1) FIG. 1. […] (A) TEX and (B) M9-ENL1 cells were plated in 96-well plates and drugs were added to the wells (5 μL per well) for final concentrations of 10 μM (shown) and 1 μM. Cell growth and viability was measured at 48 hours (M9-ENL-1) and 72 hours (TEX) by MTS assay. Cell viability is shown for each compound as a percent of cells treated with DMSO alone. (C) Leukemia, (D) myeloma, and (E) solid tumor cell lines were seeded in 96-well plates and then treated with increasing concentrations of tigecycline. Cell growth and viability was measured at 72 hours by MTS assay. Cell viability is expressed as mean percentage plus or minus SD (n=3) relative to vehicle-treated cells. […] Cell viability was measured at 72 hours by MTS assay. Cell viability is expressed as mean percentage plus or minus SD (n=3) relative to vehicle-treated cells.
(§2) Human leukemia (OCI-AML2, HL60, U937) cell lines were maintained in RPMI 1640 medium. Myeloma (LP-1, KMS11, 8226, JJN3, OP-M2) cell lines were maintained in Iscove's media. Ovarian (OVCAR), prostate (PC3), and lung alveolar (A549) cell lines were maintained in RPMI 1640 medium. Media was supplemented with 10% fetal calf serum (FCS), […] (all from Hyclone, Logan, Utah). TEX cells were maintained in IMDM, 15% FBS, 2 mM L-glutamine, 1%, penicillin-streptomycin, 20 ng/mL SCF, 2 ng/mL IL-3. M9-ENL1 cells were maintained in alpha-MEM, 20% FBS, 5% human plasma, 2 mM L-glutamine, 1%, penicillin-streptomycin, 100 ng/mL SCF, 10 ng/mL IL-3, 5 ng/mL IL-7, and 5 ng/mL FLT3L. All cells were incubated at 37° C. in a humidified air atmosphere supplemented with 5% CO2.
(§3) Cell growth and viability was assessed by the MTS assay (Promega, Madison, Wis.) according to the manufacturer's instructions. Apoptosis and cell death was measured by Annexin V-fluoroscein isothiocyanate (FITC; Biovision Research Products, Mountain View, Calif.), propidium iodide staining and flow cytometry according to the manufacturer's instructions and as previously described^30.

solid tumour cell lines = assay: Cell growth and viability, MTS assay, 72 hours; format: cell-based
Experimental: as §1, §2, §3

leukemia cell lines = assay: Cell growth and viability, MTS assay, 72 hours; format: cell-based; details: tested leukemia cell lines
Experimental: as §1, §2, §3

primary human AML cells = format: in vivo, NOD-SCID mice; details: 100 mg/kg i.p. daily for three weeks, vs vehicle control
Experimental: FIG. 3. Tigecycline has anti-leukemia activity in vivo. (A, B) Human leukemia (OCI-AML2) were injected subcutaneously into the flank of SCID mice. Seven days after injection, once tumors were palpable, mice were treated with tigecycline (50 mg/kg or 100 mg/kg twice daily by i.p. injection) or vehicle control (n=10 per group). Fourteen days after injection of cells, mice were sacrificed, tumors excised and the volume and mass of the tumors were measured. The tumor mass and the mean volume+SD are shown. Differences in tumor volume and mass were analyzed by an unpaired t-test: * p<0.001. (C) Tumours from two control mice, and three tigecycline-treated mice were excised after 5 days of treatment and total proteins were extracted and analyzed by western blotting for Cox-1, Cox-2, Cox-4, and tubulin. […] Following treatment, human leukemia cell engraftment in the injected right femur was measured by FACS analysis for human CD45^+CD19^−CD33^+ cells. […] Six weeks later, human leukemia cell engraftment in the injected right femur was measured by FACS analysis for human CD45^+CD19^−CD33^+ cells. […]
To assess tigecycline in mouse models of primary AML, primary human AML cells were isolated form a fresh peripheral blood sample from a patient with AML. A frozen aliquot was thawed, counted and resuspended in PBS. […]

CN(C)c1cc(NC(=O)CNC(C)(C)C)c(O)c2c1C[C@H]1C[C@H]3[C@H](N(C)C)C(O)=C(C(N)=O)C(=O)[C@@]3(O)C(O)=C1C2=O [tigecycline]
IC50 (myeloma cell lines): > 10 µM
IC50 (solid tumour cell lines): > 10 µM
IC50 (leukemia cell lines): 5 to 8 µM
engraftment of human AML cells (CD45+CD33+CD19-) in marrow (primary human AML cells): significantly decreased
